Legend:
[1] = cited from earlier work
[2] = at physiological temperatures; Unger 1993; cited from earlier work
[3] = system: fibrosarcomas implanted in the flank of Fisher 344 rats; assay: In vivo MRI signal enhancement and signal intensity ratio (SIR) in rats bearing flank fibrosarcomas, catheter hyperthermia
Description: Fibrosarcocomas were transplanted in the flank of fisher 344 rats and allowed to grow to 17-19 mm in diameter. Rats were anesthetized with pentobarbital (source/amount) and a 16 gauge catheter was placed through the center of the tumor. Heated water (56° C., 1.8 ml/s) was passed through the catheter to provided hyperthermia. During MRI scans, the heating water was doped with 0.25 M MnSO4 to prevent flow image artifacts. Gradient recalled echo was used with a Tr of 23 ms, Te of 1.4 ms, and flip angles of 5, 15, 30, 40, 50, 60 degrees for the initial T1 weighted image. Subsequent drug uptake scans were performed at a flip angle of 33°. 3D volume images, 12 slices 1 mm thick, were taken with a field of view of 6 cm with a pixel size of 234×234 μm. Four and signal image averaging was used for liposome and Gd-DTPA experiments yielding scan times of 1 min, 45 sec and 30 sec respectively.
1NEX image averaging was used for the first twenty minutes of liposome or Gd uptake. Subsequent images were taken at 4NEX for the remainder of the experiment (90-120 minutes).
The liposome formulations were studied in fibrosarcomas implanted in the flank of Fisher 344 rats. The center of the tumor was heated using a catheter through which hot was water circulated. […] Liposomes were then administered intravenously, followed by MR imaging.
In vivo drug relative concentrations were performed by signal intensity image analysis over regions of interest (ROI) within heated tumors. The white boxes present in FIGS. 2A, 2B and 2C indicate these ROIs. […] Muscle in the non-tumor bearing leg of the animal was used as a non-heated, normal tissue control.

[4] = In vitro MRI T1 relaxivity measurements as a function of temperature and concentration; assay type: physicochemical; details: linear regression, in vitro samples, 2-T magnet
Description: Three control stock solutions of manganese sulfate (MnSO4.H2O), free DOX and MnSO4.H2O in a molar ratio of 0.902:1 (DOX:Mn), and MnSO4.H2O with thermally sensitive liposomes that were formed without the presence of MnSO4.H2O. These solutions, along with liposome solutions, were then diluted to concentrations from 0.25-8 mM. The solutions were placed in […] NMR tubes cut to a three-inch length.
All MRI experiments were performed at the Center for In vivo Microscopy at Duke University in a 2-T 30-cm bore diameter magnet (Signa, G.E. Medical Systems, Milwaukee, Wis.). […] Each experiment had six to eight sample tubes, which were contained within an exposed sample holder, and placed inside a 3.81 cm birdcage coil providing RF excitation. […]
Images that were obtained were analyzed by selecting a region of interest and measuring average intensity for each sample dilution. […]
To quantify the concentration of drug in vivo using MRI, in vitro experiments were performed to determine the concentration- and temperature-dependence of T1 shortening. These experiments measured signal intensity resulting from proton spin realignment to the bulk magnetic field after excitation from repetitive radio frequency pulses. […] MnSO4 liposome-DOX formulation measured over a range of drug concentrations (T=29.9° C.). […]

fibrosarcoma (FSA-1) = assay: Antitumor effect: time for tumors to reach five times the volume on the day of treatment; assay type: in vivo, rat
Description: Tumor model. […] The fibrosarcoma was transplanted subcutaneously in the flanks of 8-week-old female Fischer 344 rats (Charles River Laboratories, Wilmington, Mass., U.S.A.) under anesthesia using intraperitoneal ketamine (9 mg/kg body weight) and xylazine (10 mg/kg body weight). Tumors were allowed to grow for approximately 2 weeks to a diameter of 10-12 mm before treatment.
Each group of rats (except the control group) received an equivalent dose of 5 mg doxorubicin/kg body weight by intravenous injection and/or 1 hour of hyperthermia. Local hyperthermia was delivered by means of an 18-gauge catheter that was placed through the center of the tumor and through which heated water (˜50° C., 1.8 mL/s) was passed.
The remaining 6-7 rats in each treatment group were included in the survival analysis. […] Final images were taken after tumors cooled to room temperature. […] After therapy, the rats were monitored as they recovered from anesthesia. Tumor volumes were measured three times per week for 60 days or until the tumor volume reached five times the volume on the day of treatment. At these endpoints, the rats were killed by carbon dioxide asphyxiation. […] The five-times-the-initial-volume cutpoint was chosen based on guidelines from the institutional animal care and use committee. No rats were killed before the specified endpoints were reached.
Descriptive summary statistics are expressed as mean values with 95% confidence intervals, except for the time-to-five-times-tumor-volume data, which are expressed as median values with 95% confidence intervals. To avoid assuming a normal distribution, nonparametric or semi-parametric statistical methods were used. Group comparisons were conducted with the Kruskal-Wallis test for more than two groups and the Wilcoxon test for between-group differences. For the antitumor efficacy data, the primary endpoint (time to reach five times the original tumor volume) was analyzed by the Kaplan-Meier product-limit method, using the Wilcoxon rank test for between-group differences. […]

## O=C([O-])CN(CCN(CC(=O)[O-])CC(=O)[O-])CCN(CC(=O)[O-])CC(=O)[O-].[Gd+3] [Gd-DTPA]
[1]; in about 6 hours
  fraction excreted in urine: 83%±14%
[1]; in vivo
  mean elimination half-life: about 0.2±0.13 hours
[2]
  relaxivity: approximately 44.5 (mM·sec·° C.)^−1
[3]; enhanced tumor region
  time to reach SIR plateau in tumor-enhancing region: ≤ 10 min
[3]; femoral vein, normalized to non-heated muscle
  femoral vessel SIR value reached: 2.0
[3]; femoral vein, post injection
  time at which femoral vessel SIR value was reached: 10 min
[3]; without hyperthermia (HT)
  MR signal enhancement pattern: Enhancement occurs in all tissues with a high degree of non-uniformity in the tumor

## O=S(=O)([O-])[O-].[Mn+2] [MnSO4, manganese sulfate]
[4]
  intercept of relaxivity as a function of temperature (intercept±S.E.): 7.28 ± 0.12 mM/s
  slope of relaxivity as a function of temperature (slope±S.E.): −0.082±0.003 (mM·sec·° C.)^−1

## COc1cccc2c1C(=O)c1c(O)c3c(c(O)c1C2=O)C[C@@](O)(C(=O)CO)C[C@@H]3O[C@H]1C[C@H](N)[C@H](O)[C@H](C)O1 [free doxorubicin, doxorubicin]
Fibrosarcoma (FSA-1); alone, without hyperthermia
  tumor growth time / growth delay: statistically significantly longer tumor growth times than the saline control
Fibrosarcoma (FSA-1); during / plus hyperthermia
  complete tumor regression upon censoring at 60 days: one of the six rats
Fibrosarcoma (FSA-1); with hyperthermia
  tumor growth time / growth delay: statistically significantly longer tumor growth times than the saline control
